According to ChEMBL document CHEMBL2346504, “Olive secoiridoids and semisynthetic bioisostere analogues for the control of metastatic breast cancer” (Bioorg Med Chem, 2013):
Calls of active or inactive are those of the source. No cut-off for these calls is given here.

Key:
MDA-MB-231 [1] = assay: Cytotoxicity against human MDA-MB-231 cells after 24 hrs by MTT assay; settings: MDA-MB-231, 24 h
MDA-MB-231 [2] = assay: Antimigratory activity against human MDA-MB-231 cells after 24 hrs by wound healing assay; settings: MDA-MB-231, 24 h
MCF-10A [3] = assay: Cytotoxicity against human MCF10A cells at IC50 in wound healing assay after 24 hrs by MTT assay; type: cell-based
MDA-MB-231 [4] = assay: Antiinvasive activity against human MDA-MB-231 cells at 10 to 20 uM after 24 hrs by Cultrex BME assay; type: functional, cell-based
MCF-10A [5] = assay: Cytotoxicity against human MCF10A cells at IC50 in MDA-MB-231 MTT assay after 24 hrs by MTT assay; type: cell-based
MDA-MB-231 [6] = assay: Antimigratory activity against human MDA-MB-231 cells at 25 uM after 24 hrs by wound healing assay; type: functional; settings: for inhibition at 25 µM: MDA-MB-231, 24 h
MDA-MB-231 [7] = assay: Antiinvasive activity against human MDA-MB-231 cells assessed as cell invasion at 20 uM after 24 hrs by Cultrex BME assay; type: functional
MDA-MB-231 [8] = assay: Antiinvasive activity against human MDA-MB-231 cells assessed as cell invasion at 10 uM after 24 hrs by Cultrex BME assay; type: functional
[9] = target: T1, Hepatocyte growth factor receptor (Homo sapiens, UniProt P08581); settings: 25 to 100 nM
T1 sequence (P08581 whole entry): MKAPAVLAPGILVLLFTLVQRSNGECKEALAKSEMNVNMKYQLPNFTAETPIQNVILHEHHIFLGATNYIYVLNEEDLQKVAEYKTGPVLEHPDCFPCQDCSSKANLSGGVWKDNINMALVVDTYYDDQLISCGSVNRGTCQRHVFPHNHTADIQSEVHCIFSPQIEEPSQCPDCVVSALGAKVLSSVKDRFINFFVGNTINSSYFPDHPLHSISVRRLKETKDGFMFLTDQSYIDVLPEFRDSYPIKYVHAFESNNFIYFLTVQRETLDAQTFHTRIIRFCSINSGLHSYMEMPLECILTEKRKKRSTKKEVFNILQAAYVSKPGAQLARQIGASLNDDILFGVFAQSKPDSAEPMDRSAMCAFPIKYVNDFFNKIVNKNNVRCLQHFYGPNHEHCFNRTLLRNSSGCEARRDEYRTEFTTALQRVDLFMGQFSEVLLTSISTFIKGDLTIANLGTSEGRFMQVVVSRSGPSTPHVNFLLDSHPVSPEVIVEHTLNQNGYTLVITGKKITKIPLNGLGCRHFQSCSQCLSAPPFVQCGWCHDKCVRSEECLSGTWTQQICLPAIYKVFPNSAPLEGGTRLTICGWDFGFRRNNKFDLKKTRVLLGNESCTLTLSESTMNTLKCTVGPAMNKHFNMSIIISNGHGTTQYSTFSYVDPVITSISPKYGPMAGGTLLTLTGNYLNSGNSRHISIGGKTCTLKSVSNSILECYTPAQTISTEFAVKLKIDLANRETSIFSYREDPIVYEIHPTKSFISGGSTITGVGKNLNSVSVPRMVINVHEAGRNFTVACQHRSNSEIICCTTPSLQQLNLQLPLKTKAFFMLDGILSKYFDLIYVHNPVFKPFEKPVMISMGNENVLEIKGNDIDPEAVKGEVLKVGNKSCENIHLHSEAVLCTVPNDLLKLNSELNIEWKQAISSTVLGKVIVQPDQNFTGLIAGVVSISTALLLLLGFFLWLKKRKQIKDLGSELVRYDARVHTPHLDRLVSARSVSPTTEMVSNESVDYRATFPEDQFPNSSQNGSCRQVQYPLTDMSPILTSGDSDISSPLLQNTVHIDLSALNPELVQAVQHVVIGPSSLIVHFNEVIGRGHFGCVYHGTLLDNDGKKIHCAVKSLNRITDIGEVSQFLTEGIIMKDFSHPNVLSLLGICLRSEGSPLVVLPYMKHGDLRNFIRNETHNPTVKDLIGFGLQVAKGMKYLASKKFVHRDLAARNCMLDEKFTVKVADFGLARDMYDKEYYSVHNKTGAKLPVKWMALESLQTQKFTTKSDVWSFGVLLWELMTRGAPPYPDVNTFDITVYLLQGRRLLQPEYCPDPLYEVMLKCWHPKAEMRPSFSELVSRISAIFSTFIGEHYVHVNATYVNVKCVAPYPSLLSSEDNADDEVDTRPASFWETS
Description: Competitive inhibition of c-MET phosphorylation (unknown origin) at 25 to 100 nM after 60 mins by Omnia kinase assay

[10] = target: T1, Hepatocyte growth factor receptor; assay: Competitive inhibition of c-MET phosphorylation (unknown origin) after 60 mins by Omnia kinase assay
[11] = target: T1, Hepatocyte growth factor receptor; assay: Inhibition of c-MET phosphorylation (unknown origin) at 10 uM after 1 hr by Z'-LYTE kinase assay
MDA-MB-231 [12] = assay: Antimigratory activity against human MDA-MB-231 cells at 10 uM after 24 hrs by wound healing assay; type: functional, cell-based
MDA-MB-231 [13] = assay: Antiinvasive activity against human MDA-MB-231 cells at 20 uM after 24 hrs by Cultrex BME assay; type: functional; settings: MDA-MB-231, 24 h
MDA-MB-231 [14] = assay: Antimigratory activity against human MDA-MB-231 cells at 50 uM after 24 hrs by wound healing assay; type: functional, cell-based

Row | Compound | IC50 (MDA-MB-231 [1]) [µM] | IC50 (MDA-MB-231 [2]) [µM] | Activity (MCF-10A [3]) | inhibition (MDA-MB-231 [4]) | Activity (MCF-10A [5]) | other results
1 | O=C(NCc1ccccc1)OCCc1ccc(OC(=O)NCc2ccccc2)cc1 | > 100 | > 100 | Non-toxic | inactive | Non-toxic | 
2 | O=C(Cc1ccc(O)c(O)c1)OCCc1ccc(O)cc1 | > 100 | 41.6 | Non-toxic | inactive | Non-toxic | inhibition (MDA-MB-231 [6]): Active
3 | COc1cc(/C=C/C(=O)OCCc2ccc(O)cc2)cc(OC)c1OC | > 100 | 46.7 | Non-toxic | inactive | Non-toxic | inhibition (MDA-MB-231 [6]): Active
4 | CCn1cc(C(=O)OCCc2ccc(O)cc2)c(=O)c2ccc(C)nc21 |  |  | Non-toxic |  | Non-toxic | Activity (MDA-MB-231 [7]): 36%; Activity (MDA-MB-231 [8]): 60%
5 | O=C(NCc1ccccc1)OCCc1ccc(O)cc1 | > 100 | > 100 | Non-toxic |  | Non-toxic | 
6 | Cc1[nH]c(/C=C2\C(=O)Nc3ccc(S(=O)(=O)N(C)c4cccc(Cl)c4)cc32)c(C)c1C(=O)N1CCN(C)CC1 |  |  |  |  |  | inhibition [9]: Active
7 | Cc1ccc(S(=O)(=O)NC(=O)OCCc2ccc(O)cc2)cc1 [4-HYDROXYPHENETHYL TOSYLCARBAMATE] | > 100 | > 100 | Non-toxic | inactive | Non-toxic | 
8 | C/C=C(/C=O)[C@@H](CC=O)CC(=O)OCCc1ccc(O)cc1 [(-)-OLEOCANTHAL] |  |  | Non-toxic | inactive | Non-toxic | inhibition [10]: Active; inhibition [11]: 93.4%; inhibition (MDA-MB-231 [12]): Active
9 | C=C[C@@H]1[C@H](O)OC=C(C(=O)OC)[C@H]1CC(=O)OCCc1ccc(O)cc1 [LIGSTROSIDE AGLYCONE] | 80.4 | 13.8 | Non-toxic |  | Non-toxic | inhibition at 25 µM (MDA-MB-231 [6]): 60%; inhibition at 20 µM (MDA-MB-231 [13]): > 50%
10 | O=C(/C=C/c1ccc(O)c(O)c1)OCCc1ccc(O)cc1 [TYROSOL CAFFEATE] | > 100 | > 100 | Non-toxic | inactive | Non-toxic | inhibition at 20 µM (MDA-MB-231 [13]): > 50%
11 | COc1cc(CC(=O)OCCc2ccc(O)cc2)ccc1O [TYROSOL HOMOVANILLATE] | > 100 | > 100 | Non-toxic | inactive | Non-toxic | 
12 | COc1cc(/C=C/C(=O)OCCc2ccc(O)cc2)cc(OC)c1O [TYROSOL SINAPATE] |  |  | Non-toxic | inactive | Non-toxic | inhibition (MDA-MB-231 [6]): Active; inhibition at 20 µM (MDA-MB-231 [13]): > 50%
13 | COc1cc(C(=O)OCCc2ccc(O)cc2)cc(OC)c1O [TYROSOL SYRINGATE] | > 100 | 19.4 | Non-toxic | inactive | Non-toxic | inhibition at 25 µM (MDA-MB-231 [6]): 60%
14 | OCCc1ccc(O)cc1 [TYROSOL] | > 100 | > 100 | Non-toxic |  | Non-toxic | inhibition (MDA-MB-231 [14]): inactive
